This is an account of results in paper PMC10859787 (Clinical and Translational Science, 2024).

By Vd/F is commonly meant the volume of distribution divided by bioavailability. As usually defined, the Cmax is the maximum level reached in the sampled fluid or tissue.

Data set [1] relates to CYP2D6. The following applies: cited from earlier work.
Data set [2] is described as follows: Population pharmacokinetic analysis of upadacitinib plasma concentrations. The class given is in vivo, human. The following applies: for Cmax: C max; for Cmax / concentration at 24 h / C avg: model-estimated, 15 mg once daily, median (5th to 95th percentile); for concentration at 24 h: C trough.
Data set [3] relates to cytochrome P450 (CYP) 3A. The note with it: cited from earlier work.
For data set [4] the following is noted: cited from earlier work.
Setting [5] is: human, plasma, oral, 15 mg, patients with RA in phase III trials (N = 1592).
[6] abbreviates: human, plasma, oral, 15 mg, patients with nr-axSpA (N = 71).

Take `CC[C@@H]1CN(C(=O)NCC(F)(F)F)C[C@@H]1c1cnc2cnc3[nH]ccc3n12` [upadacitinib]: in data set [1], the “substrate for CYP2D6” value was “to a minor extent”. In data set [2] (human, plasma, oral, 15 mg), this molecule came in with a Vd/F of 171 L. Besides, the Cmax in data set [2] (setting [5]) is 41.1 ng/mL; in data set [2] (setting [6]), 37.3 ng/mL. Moreover, the concentration at 24 h in data set [2] (human, plasma, oral, 15 mg, patients with AS (N = 173)) is 3.71 ng/mL; in data set [2] (setting [5]) it was 3.72 ng/mL; in data set [2] (setting [6]), 4.58 ng/mL. Further, the C avg in data set [2] (patients with AS (N = 173)) was 14.5 (9.78, 25.9) ng/mL; in data set [2] (patients with RA in phase III trials (N = 1592)) it was 14.9 (9.74, 29.2) ng/mL; in data set [2] (patients with nr-axSpA (N = 71)), 14.8 (10.5, 25.5) ng/mL. Moreover, the “substrate for cytochrome P450 (CYP) 3A” value in data set [3] is “substrate”. Besides, the “dose linearity of pharmacokinetics” value in data set [4] (7.5 to 45 mg q.d. dose range) is “linear pharmacokinetics”. Besides, the “apparent volume of distribution of the central compartment (population estimate)” value in data set [4] (previously developed RA model) was 156 L.
